Assay results from PubChem BioAssay AID1963829 (Molecular Pharmacology Branch, DTP, NCI, 2024).
Several values for one entry are separate records, joined by “and”; a condition that tells them apart may be missing. Identical values can stand only once.

Tested on: 935938-334-R-J1-PDC complex spheroid viability
Assay: Anticancer human tumor 935938-334-R-J1-PDC patient-derived small intestine adenocarcinoma cell line growth inhibition [POLQ]
Conditions: for viability, T/C: stronger effect = lower value; for IC50: curve of compound
Protocol: Multicellular complex tumor spheroid response to Polymerase (POL) inhibitors (novobiocin, ART-558, RP6685) in combination with a variety of drugs and investigational agents in selected tumor cell lines
The POL inhibitors (novobiocin, ART-558, and RP6685) were evaluated both individually and in combination with standard of care and investigational anticancer small molecules within a complex spheroid model of solid tumors. . Complex spheroids include a stromal component modeled by human endothelial cells (HUVEC) and fibroblasts modeled by human mesenchymal stem cells (MSCs). The concentration ranges selected for each drug and investigational agent were based upon clinically achievable concentrations if the clinical Cmax of the agent was known.
Compounds. The drugs and investigational agents: novobiocin (NSC847541), ART-558 (NSC835418), RP-6685 (NSC848927), peposertib (NSC802822), ceralasertib (NSC780249), elimusertib (NSC800525), camonsertib (NSC841442), AZD-1390 (NSC803789), olaparib (NSC753686), talazoparib (NSC767125), rucaparib (NSC756644), sotorasib (NSC818433), MRTX-1133 (NSC836407), SN-38 (NSC673596), topotecan (NSC609699), epotoside (NSC141540), doxorubicin (NSC123127), gemcitabine (NSC613327), 5-fluorouracil (NSC19893), paclitaxel (NSC125973), vemurafenib (NSC761431), MSA-2 (NSC828583), SN-011 (NSC837082), adavosertib (NSC754352), prexasertib (NSC758257), carboplatin (NSC241240) and oxaliplatin (NSC266046), were obtained from the National Cancer Institute (NCI) Developmental Therapeutics Program Chemical Repository (21). The FDA-approved anticancer drug set is available from the Developmental Therapeutics Program at https://dtp.cancer.gov/organization/dscb/obtaining/. […] The stock solutions were prepared in dimethyl sulfoxide (DMSO, Sigma-Aldrich, St. Louis, MO, cat. D2650), except for the platinum compounds which were prepared in saline (Quality Biological, Gaithersburg, MD, cat. 114-055-101), at 800-fold the tested concentration and stored at -70 degrees C prior to their use. All drugs and investigational agents were tested over a range starting from a high concentration at or near the clinical Cmax and decreasing in half-log increments. If the clinical Cmax for an agent had not been determined, the highest concentration tested was 10 microM, except for SN-38, which was tested at a high concentration of 1 microM.
Cell Culture. All cells were maintained in an incubator at 37 degrees C and 5% CO2 with 95% humidity. The PDC lines were cultured according to standard operating procedures established by the NCI PDMR (https://pdmr.cancer.gov). Table 3 of the manuscript, lists the cell lines along with the number of the three cell types plated to form the mct-spheroids and media for tumor cell growth. After thawing, all PDC lines, except 997537-175-T-J1-PDC and 415267-285-R-J2-PDC, were cultured in Matrigel-coated flasks prepared with a working solution of 1X Ham's F-12 nutrient mix, without supplementation (Thermo Fisher Scientific, cat. 11765054), 100 U/mL penicillin-streptomycin (Thermo Fisher Scientific, cat. 15140122), and 2.5% Matrigel (Corning Inc., Corning, NY, cat. 354248) for the first three passages. The two PDC lines 997537-175-T-J1-PDC and 415267-285-R-J2-PDC were cultured on uncoated flasks. The 857933-349-R-J2-PDC line was cultured in 6C/Colon 1B media containing advanced DMEM/F-12 (Thermo Fisher Scientific, cat. 12634028), 10 mM HEPES (Thermo Fisher Scientific, cat. 15630080), 1X GlutaMAX supplement (Thermo Fisher Scientific, cat. 35050061), 0.1 mg/mL primocin (InvivoGen, San Diego, CA, cat. ant-pm-2), 10% defined fetal bovine serum, heat inactivated (HyClone Laboratories Inc., Logan, UT, cat. SH30070.03HI), 50% L-WRN conditioned media (ATCC, cat. CRL-3276), 1.25 mM N-Acetyl-L-cysteine (Sigma-Aldrich, cat. A9165), 10 mM nicotinamide (Sigma-Aldrich, cat. N0636), 1X B-27 supplement (Thermo Fisher Scientific, cat. 17504044), 1X N-2 supplement (Thermo Fisher Scientific, cat. […]
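Note: spheroids exposed to drugs for seven days before viability read.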
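Throughout, for viability, T/C: 100% = DMSO vehicle control wells.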

Structure (SMILES)	viability, T/C (compound 0.0316 µM)	viability, T/C (compound 0.1 µM)	viability, T/C (compound 0.316 µM)	viability, T/C (compound 1 µM)	viability, T/C (compound 3.16 µM)	viability, T/C (compound 10 µM)	IC50	viability, T/C (compound 0.00316 µM)	viability, T/C (compound 0.01 µM)	viability, T/C (compound 0.00949 µM)	viability, T/C (compound 0.03 µM)	viability, T/C (compound 0.0949 µM)	viability, T/C (compound 0.3 µM)	viability, T/C (compound 0.949 µM)	viability, T/C (compound 3 µM)	viability, T/C (compound 0.000316 µM)	viability, T/C (compound 0.001 µM)
C#Cc1c(F)ccc2cc(O)cc(-c3ncc4c(N5CC6CCC(C5)N6)nc(OCC56CCCN5CC(F)C6)nc4c3F)c12 (centres undefined)	94.5% and 100% and 95%	109% and 87.3% and 101%	78.4% and 86.1% and 85.4%	59.5% and 69% and 70.2%	64.2% and 46.4% and 44%	28.9% and 34.7% and 36.1%	3790 nM and 2850 nM and 2510 nM										
C=CC(=O)N1CCN(c2nc(=O)n(-c3c(C)ccnc3C(C)C)c3nc(-c4c(O)cccc4F)c(F)cc23)C(C)C1 (centres undefined)	83.1% and 99.4% and 81.4%	94.9% and 68.4% and 69.6%	89.5% and 99.7% and 67.9%	89.7% and 115% and 113%	102% and 110% and 112%	99.6% and 131% and 105%	> 10000 nM										
C=CCn1c(=O)c2cnc(Nc3ccc(N4CCN(C)CC4)cc3)nc2n1-c1cccc(C(C)(C)O)n1	98.9% and 94.2% and 106%	87.7% and 94.9% and 106%	90.8% and 93.2% and 71.3%	33.3% and 32.5% and 27.3%			694 nM and 719 nM and 552 nM	104% and 93.2% and 96.4%	122% and 109% and 68.7%								
CC(=O)O[C@H]1C(=O)[C@@]2(C)[C@H]([C@H](OC(=O)c3ccccc3)[C@]3(O)C[C@H](OC(=O)[C@H](O)[C@@H](NC(=O)c4ccccc4)c4ccccc4)C(C)=C1C3(C)C)[C@]1(OC(C)=O)CO[C@@H]1C[C@@H]2O							< 9.49 nM and 10.6 nM			35.5% and 53.2% and 37.8%	18.7% and 20.8% and 19.2%	15.8% and 15.7% and 16%	12.4% and 16.4% and 17%	14.9% and 15.7% and 13.9%	17.9% and 19.1% and 19.5%		
CC(C)n1c(=O)n(C)c2cnc3cc(F)c(-c4ccc(OCCCN5CCCCC5)nc4)cc3c21	75.1% and 94.3% and 79.1%	104% and 75.2% and 67.4%	103% and 102% and 65.2%	92.1% and 121% and 73.4%	113% and 120% and 72.1%	94.9% and 91.5% and 72.9%	> 10000 nM										
CC1COCCN1c1cc(-c2ccnn2C)c2ccnc(-c3ccn[nH]3)c2n1 (centres undefined)	82.6% and 80.7% and 109%	48.1% and 37.2% and 43.2%	23.7% and 26.6% and 25.3%	19.7% and 18.6% and 15.1%	17.2% and 15.3% and 17.5%	19.2% and 18.9% and 18.3%	93.9 nM and 73.1 nM and 89.6 nM										
CC1COCCN1c1cc(C2(O)CC3CCC(C2)O3)c2cnn(-c3ccn[nH]3)c2n1 (centres undefined)	84.1% and 74.7% and 60.4%	62.5% and 69.8% and 72.1%	45.6% and 32.8% and 34.3%	24.3% and 23.7% and 22.5%	15% and 14% and 18.6%	12% and 10.3% (2×)	216 nM and 187 nM and 180 nM										
CC1COCCN1c1cc(C2(S(C)(=N)=O)CC2)nc(-c2ccnc3[nH]ccc23)n1 (centres undefined)	98.1% and 87.1% and 102%	112% and 108% and 84.7%	80.3% and 107% and 90.2%	85.9% and 79.2% and 65.2%	46.4% and 41.8% and 49.7%	24.2% and 18.7% and 17.1%	3130 nM and 2420 nM and 2820 nM										
CCCS(=O)(=O)Nc1ccc(F)c(C(=O)c2c[nH]c3ncc(-c4ccc(Cl)cc4)cc23)c1F	113% and 92.8% and 116%	119% and 111% and 89.6%	115% and 103% and 106%	108% and 102% and 121%	96.3% and 131% and 129%	46.3% and 53.5% and 37.2%	9270 nM and > 10000 nM and 8230 nM										
CC[C@@]1(O)C(=O)OCc2c1cc1n(c2=O)Cc2cc3c(CN(C)C)c(O)ccc3nc2-1	96.8% and 83.6% and 81.2%	49.7% and 61.4% and 63%					99.2 nM and > 100 nM	72.4% and 89.2% and 99%	103% and 118% and 92.3%							81.3% and 82.1% and 82.2%	103% and 107% and 86.1%
CCc1c2c(nc3ccc(O)cc13)-c1cc3c(c(=O)n1C2)COC(=O)[C@]3(O)CC	42.9% and 36.9% and 39.4%	31.1% and 30.2% and 33.9%	39.8% and 38.2% and 27.4%	35.2% and 33.7% and 25.6%			21.9 nM and 16.3 nM and 20.1 nM	59.3% and 81% and 86.5%	70.9% and 60% and 64%								
CCc1cc2c(N3CCc4c(cc(Cn5ccnc5)cc4-c4cn(C)nc4C(F)(F)F)C3=O)cc(C)nc2c(OC)n1	63.3% and 77.3% and 86.5%	98.4% and 69.4% and 64.3%	72.6% and 62.2% and 67.1%	65.5% and 59.4% and 67.5%	65.5% and 71.2% and 67.9%	57.6% and 57% and 58.1%	> 10000 nM										
